How the values were obtained:
Conditions in all cases: 48 h
NOMO1 [1] = test: cell viability relative to DMSO control; higher = less cytotoxic
In short: (§1)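 Leukemia cells (NOMO1 or SEM, 500 cells/well; P12-Ichikawa, 1000 cells/well) were seeded in 5 μl in 1536-well plates after at least four passages of adaptation to each medium. They received library compounds in DMSO by pin dosing, 11 threefold points from 47 μM to 0.79 nM. Luminescence with CellTiter-Glo One was read after 48 h at 37°C. Viability is stated per plate relative to DMSO wells, with cell-free wells as background.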

P12-Ichikawa [2] = test: as above
In short: as §1

SEM cells [3] = test: as above
In short: as §1

NOMO1 [4] = test: AUC of viability dose-response curve (% viability x log10 dose units); higher = less sensitive
In short: (§2)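 Over 48 h at 37°C, leukemia cells in 1536-well plates (500 or 1000 cells/well), adapted to each medium, received library compounds in DMSO at 11 threefold doses from 47 μM to 0.79 nM. CellTiter-Glo One luminescence, normalised per plate to DMSO and cell-free wells, was fitted by a four-parameter log-logistic function of log10 dose. The area under the curve was then integrated by trapezoidal rule, after scaling curves above full viability and removing those that failed quality control.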

P12-Ichikawa [5] = test: as above
In short: as §2

SEM cells [6] = test: as above
In short: as §2

ClC1=CC\2=C(OC3=C(C=CC=C3)\N=C2N4CCNCC4)C=C1
cell viability [%]
Conditions	NOMO1 [1]	P12-Ichikawa [2]	SEM cells [3]
HPLM + 10% dialyzed FBS, 0.000781 µM	106	100	110
HPLM + 10% dialyzed FBS, 0.00234 µM	111	104	90.9
HPLM + 10% dialyzed FBS, 0.00702 µM	106	113	114
HPLM + 10% dialyzed FBS, 0.0211 µM	94.5	103	108
HPLM + 10% dialyzed FBS, 0.0632 µM	105	109	117
HPLM + 10% dialyzed FBS, 0.19 µM	103	101	116
HPLM + 10% dialyzed FBS, 0.569 µM	118	107	112
HPLM + 10% dialyzed FBS, 1.71 µM	91.1	109	105
HPLM + 10% dialyzed FBS, 5.12 µM	91.7	99.7	119
HPLM + 10% dialyzed FBS, 15.4 µM	83.3	98	95.2
HPLM + 10% dialyzed FBS, 46.1 µM	90.7	95.5	89
RPMI 5 mM glucose + 10% FBS, 0.000781 µM	87	103	94.5
RPMI 5 mM glucose + 10% FBS, 0.00234 µM	90.1	105	49.6
RPMI 5 mM glucose + 10% FBS, 0.00702 µM	95.9	107	95
RPMI 5 mM glucose + 10% FBS, 0.0211 µM	94.8	105	90.4
RPMI 5 mM glucose + 10% FBS, 0.0632 µM	88.7	93.8	94.1
RPMI 5 mM glucose + 10% FBS, 0.19 µM	101	90.6	93.3
RPMI 5 mM glucose + 10% FBS, 0.569 µM	100	99.6	103
RPMI 5 mM glucose + 10% FBS, 1.71 µM	87.7	95.2	99.7
RPMI 5 mM glucose + 10% FBS, 5.12 µM	86.5	90.3	104
RPMI 5 mM glucose + 10% FBS, 15.4 µM	83.7	87.7	89.3
RPMI 5 mM glucose + 10% FBS, 46.1 µM	84	87.8	86.8
RPMI 5 mM glucose + 10% dialyzed FBS, 0.000781 µM	101	100	104
RPMI 5 mM glucose + 10% dialyzed FBS, 0.00234 µM	84	102	80.1
RPMI 5 mM glucose + 10% dialyzed FBS, 0.00702 µM	94.3	100	113
RPMI 5 mM glucose + 10% dialyzed FBS, 0.0211 µM	91.1	104	106
RPMI 5 mM glucose + 10% dialyzed FBS, 0.0632 µM	92.1	99.3	117
RPMI 5 mM glucose + 10% dialyzed FBS, 0.19 µM	90.7	99.7	105
RPMI 5 mM glucose + 10% dialyzed FBS, 0.569 µM	93.3	99.1	111
RPMI 5 mM glucose + 10% dialyzed FBS, 1.71 µM	90.6	92.5	107
RPMI 5 mM glucose + 10% dialyzed FBS, 5.12 µM	90.7	89.3	119
RPMI 5 mM glucose + 10% dialyzed FBS, 15.4 µM	88.4	98.3	103
RPMI 5 mM glucose + 10% dialyzed FBS, 46.1 µM	91.1	88.6	91

AUC of viability dose-response curve
Conditions	NOMO1 [4]	P12-Ichikawa [5]	SEM cells [6]
HPLM + 10% dialyzed FBS	450	468	466
RPMI 5 mM glucose + 10% FBS	434	438	437
RPMI 5 mM glucose + 10% dialyzed FBS	437	462	467

Source: the supplement of paper PMC11451515
